# Results taken from PMC11079024, “Identification of a family of species-selective complex I inhibitors as potential anthelmintics” (Nature Communications, 2024).
# Read-outs that look alike come from different tables or passages of the source.
# Assays:
# L1 wild-type C. elegans = details: for Screen "Hit": 50 μM
# in vitro = details: human; for viability at 2 days, 3.13 µM / viability at 2 days, 6.25 µM / viability at 2 days, 25 µM / viability at 2 days, 50 µM / viability at 2 days, 100 µM / viability at 2 days, 12.5 µM: HEK293 cells (Flp-In-293), HEK293 viability
# [1] = tested on: ben-1 mutant (ECA882) C. elegans; assay: microbe, parasite or virus in culture; details: Caenorhabditis elegans; for viability at 1 µM / viability at 2 µM / viability at 3.9 µM / viability at 15.6 µM / viability at 31.3 µM / viability at 62.5 µM / viability at 125 µM / viability at 250 µM / viability at 500 µM / viability at 1000 µM: read-out: C. elegans ben-1(e1880) development/viability
# Method in brief: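 L1 larvae (~2 worms/μL in M9) in liquid NGM with 2-fold concentrated E. coli HB101, compound at 1% DMSO, 6 days at 20 °C shaking 165 rpm. Well images scored as summed worm-associated pixels, normalized to DMSO controls; relative viability averaged over at least three biological replicates.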
# [2] = molecular target: B. taurus (heart) complex I (Bos taurus, UniProt P03887+P17694+P42026); assay: biochemical; type: biochemical; details: for IC50: B. taurus heart mitochondria, read-out: B. taurus Complex I IC50; for activity at 0.0001 µM / activity at 0.0005 µM / activity at 0.001 µM / activity at 0.0025 µM / activity at 0.005 µM / activity at 0.013 µM / activity at 0.025 µM / activity at 0.063 µM / activity at 0.125 µM / activity at 0.313 µM / activity at 0.625 µM / activity at 1.5 µM / activity at 3 µM / activity at 15 µM / activity at 37.5 µM / activity at 75 µM: read-out: B. taurus mitochondrial complex I activity; for Log IC50 B. taurus complex I: log10 of IC50 in µM, B. taurus mitochondria
# Method in brief: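 Complex I activity followed as DCIP reduction (600 nm, 30 s reads, 15 min) with 80 μM NADH and 60 μM decylubiquinone in 25 mM KPi pH 7.5 containing 2 μM antimycin A and 2 mM KCN. Freeze-thawed mouse or bovine heart mitochondria at 0.2 mg/mL; initial-rate percent of solvent control, single-point 100 μM or dose-response.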
# [3] = KCN survival assay, hit = relative motility below 0.25
# [4] = read-out: C. elegans (ben-1) Development & Viability Assay LC50
# [5] = read-out: C. elegans ben-1 log10 LC50 (converted)
# [6] = estimated from fitted dose-response curves
# [7] = Dose 0.2 µM, mean of at least three biological replicates
# B. taurus (heart) complex I, sequence (P03887 whole entry): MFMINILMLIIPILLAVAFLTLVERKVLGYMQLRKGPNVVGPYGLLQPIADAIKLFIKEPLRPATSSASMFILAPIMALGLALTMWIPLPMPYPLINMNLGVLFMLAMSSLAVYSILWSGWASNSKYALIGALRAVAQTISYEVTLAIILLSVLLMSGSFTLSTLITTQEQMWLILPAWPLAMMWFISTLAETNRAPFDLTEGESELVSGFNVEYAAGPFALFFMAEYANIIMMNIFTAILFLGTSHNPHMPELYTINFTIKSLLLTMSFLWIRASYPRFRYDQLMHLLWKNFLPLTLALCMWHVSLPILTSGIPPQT
# B. taurus (heart) complex I, sequence (P17694 34-463): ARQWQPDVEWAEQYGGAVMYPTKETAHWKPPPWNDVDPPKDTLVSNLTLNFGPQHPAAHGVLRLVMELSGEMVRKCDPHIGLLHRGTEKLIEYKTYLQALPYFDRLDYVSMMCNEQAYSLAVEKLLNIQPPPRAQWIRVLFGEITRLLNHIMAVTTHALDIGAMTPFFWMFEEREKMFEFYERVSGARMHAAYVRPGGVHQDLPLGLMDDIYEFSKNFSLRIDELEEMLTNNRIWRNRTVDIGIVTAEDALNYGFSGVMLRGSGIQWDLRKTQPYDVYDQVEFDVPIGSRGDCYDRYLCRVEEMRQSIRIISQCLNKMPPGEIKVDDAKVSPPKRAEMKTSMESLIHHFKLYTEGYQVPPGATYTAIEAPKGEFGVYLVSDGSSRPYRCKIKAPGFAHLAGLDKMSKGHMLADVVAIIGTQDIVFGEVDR
# B. taurus (heart) complex I, sequence (P42026 38-216): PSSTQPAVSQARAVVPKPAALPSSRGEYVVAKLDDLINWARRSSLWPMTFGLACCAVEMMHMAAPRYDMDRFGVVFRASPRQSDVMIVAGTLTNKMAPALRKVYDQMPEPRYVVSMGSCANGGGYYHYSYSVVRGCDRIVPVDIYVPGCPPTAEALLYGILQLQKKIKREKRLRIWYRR
compound,measurement,setting,value
Brc1ccccc1OCCCCn1cnc2ccccc21 [Compound 7924576],"Screen ""Hit""",L1 wild-type C. elegans; [3],Y (hits were identified as compounds that reduced relative motility below 0.25 (75% reduction))
same,C. elegans KCN Survival,L1 wild-type C. elegans; Dose 0.39 µM,0.969
same,C. elegans KCN Survival,L1 wild-type C. elegans; Dose 1.56 µM,0.940
same,C. elegans KCN Survival,L1 wild-type C. elegans; Dose 3.13 µM,0.862
same,C. elegans KCN Survival,L1 wild-type C. elegans; Dose 6.25 µM,0.585
same,C. elegans KCN Survival,L1 wild-type C. elegans; Dose 12.5 µM,0.135
same,C. elegans KCN Survival,L1 wild-type C. elegans; Dose 25 µM,0.138
same,C. elegans KCN Survival,L1 wild-type C. elegans; Dose 50 µM,0.159
same,C. elegans KCN Survival,L1 wild-type C. elegans; Dose 100 µM,0.208
same,CC50 at 2 days,"in vitro; HEK293 Cell Viability Assay LC50, HEK293 cells, estimated from fitted dose-response curves, mean of at least two biological replicates",44.3 µM
same,"viability at 2 days, 3.13 µM",in vitro,96.3%
same,"viability at 2 days, 6.25 µM",in vitro,98.1%
same,"viability at 2 days, 25 µM",in vitro,82.8%
same,"viability at 2 days, 50 µM",in vitro,40.2%
same,"viability at 2 days, 100 µM",in vitro,6.9%
same,LC50,[1]; [4],58.6 µM
same,viability at 1 µM,[1],99.9%
same,viability at 2 µM,[1],91.7%
same,viability at 3.9 µM,[1],96.6%
same,viability at 15.6 µM,[1],87.8%
same,viability at 31.3 µM,[1],65.5%
same,viability at 62.5 µM,[1],54%
same,viability at 125 µM,[1],3.7%
same,viability at 250 µM,[1],4.7%
same,viability at 500 µM,[1],2.1%
same,viability at 1000 µM,[1],0.7%
same,LC50,[1]; [5],58.6 µM
same,IC50,[2]; [6],1.14 µM
same,activity at 0.0001 µM,[2],104%
same,activity at 0.0005 µM,[2],101%
same,activity at 0.001 µM,[2],108%
same,activity at 0.0025 µM,[2],104%
same,activity at 0.005 µM,[2],101%
same,activity at 0.013 µM,[2],102%
same,activity at 0.025 µM,[2],102%
same,activity at 0.063 µM,[2],96.3%
same,activity at 0.125 µM,[2],84.6%
same,activity at 0.313 µM,[2],74.3%
same,activity at 0.625 µM,[2],68%
same,activity at 1.5 µM,[2],44.1%
same,activity at 3 µM,[2],32%
same,activity at 15 µM,[2],6.52%
same,activity at 37.5 µM,[2],3.45%
same,activity at 75 µM,[2],3.05%
same,Log IC50 B. taurus complex I,[2],0.0569 µM
FC(F)(F)c1cccc(OCCCCn2cnc3ccccc32)c1 [Compound 7925004],"Screen ""Hit""",L1 wild-type C. elegans; [3],Y (hits were identified as compounds that reduced relative motility below 0.25 (75% reduction))
same,C. elegans KCN Survival,L1 wild-type C. elegans; [7],1.053
same,C. elegans KCN Survival,L1 wild-type C. elegans; Dose 0.39 µM,1.068
same,C. elegans KCN Survival,L1 wild-type C. elegans; Dose 1.56 µM,1.004
same,C. elegans KCN Survival,L1 wild-type C. elegans; Dose 3.13 µM,1.026
same,C. elegans KCN Survival,L1 wild-type C. elegans; Dose 6.25 µM,0.948
same,C. elegans KCN Survival,L1 wild-type C. elegans; Dose 12.5 µM,0.632
same,C. elegans KCN Survival,L1 wild-type C. elegans; Dose 25 µM,0.094
same,C. elegans KCN Survival,L1 wild-type C. elegans; Dose 50 µM,0.092
same,C. elegans KCN Survival,L1 wild-type C. elegans; Dose 100 µM,0.126
same,CC50 at 2 days,in vitro,29.2 µM
same,"viability at 2 days, 3.13 µM",in vitro,99.3%
same,"viability at 2 days, 6.25 µM",in vitro,99.5%
same,"viability at 2 days, 12.5 µM",in vitro,100%
same,"viability at 2 days, 25 µM",in vitro,61.3%
same,"viability at 2 days, 50 µM",in vitro,16.2%
same,"viability at 2 days, 100 µM",in vitro,6.8%
same,LC50,[1]; [4],47.3 µM
same,viability at 1 µM,[1],93.7%
same,viability at 2 µM,[1],95.4%
same,viability at 3.9 µM,[1],96.9%
same,viability at 15.6 µM,[1],76.5%
same,viability at 31.3 µM,[1],75.3%
same,viability at 62.5 µM,[1],28%
same,viability at 125 µM,[1],3.4%
same,viability at 250 µM,[1],2.3%
same,viability at 500 µM,[1],2.6%
same,viability at 1000 µM,[1],1.1%
same,LC50,[1]; [5],47.3 µM
same,IC50,[2]; [6],13 µM
same,activity at 0.0001 µM,[2],92.5%
same,activity at 0.0005 µM,[2],92.1%
same,activity at 0.001 µM,[2],90.6%
same,activity at 0.0025 µM,[2],88.9%
same,activity at 0.005 µM,[2],89.8%
same,activity at 0.013 µM,[2],84.7%
same,activity at 0.025 µM,[2],87.1%
same,activity at 0.063 µM,[2],85.1%
same,activity at 0.125 µM,[2],81.8%
same,activity at 0.313 µM,[2],83.3%
same,activity at 0.625 µM,[2],88.4%
same,activity at 1.5 µM,[2],81.4%
same,activity at 3 µM,[2],76.3%
same,activity at 15 µM,[2],35.9%
same,activity at 37.5 µM,[2],9.66%
same,activity at 75 µM,[2],1.95%
same,Log IC50 B. taurus complex I,[2],1.11 µM
CCc1cc(OCCn2cnc3ccccc32)ccc1Cl [Compound 7925288],"Screen ""Hit""",L1 wild-type C. elegans; hit = relative motility below 0.25 3 hours after removal of KCN,Y (hits were identified as compounds that reduced relative motility below 0.25 (75% reduction))
same,C. elegans KCN Survival,L1 wild-type C. elegans; [7],1.082
same,C. elegans KCN Survival,L1 wild-type C. elegans; Dose 0.39 µM,1.088
same,C. elegans KCN Survival,L1 wild-type C. elegans; Dose 1.56 µM,1.105
same,C. elegans KCN Survival,L1 wild-type C. elegans; Dose 3.13 µM,1.186
same,C. elegans KCN Survival,L1 wild-type C. elegans; Dose 6.25 µM,1.064
same,C. elegans KCN Survival,L1 wild-type C. elegans; Dose 12.5 µM,0.930
same,C. elegans KCN Survival,L1 wild-type C. elegans; Dose 25 µM,0.276
same,C. elegans KCN Survival,L1 wild-type C. elegans; Dose 50 µM,0.146
same,C. elegans KCN Survival,L1 wild-type C. elegans; Dose 100 µM,0.159
same,CC50 at 2 days,"in vitro; HEK293 Cell Viability Assay LC50, HEK293 cells, estimated from fitted dose-response curves",34.1 µM
same,"viability at 2 days, 3.13 µM",in vitro,91.4%
same,"viability at 2 days, 6.25 µM",in vitro,96.8%
same,"viability at 2 days, 12.5 µM",in vitro,93.6%
same,"viability at 2 days, 25 µM",in vitro,81.1%
same,"viability at 2 days, 50 µM",in vitro,8.7%
same,"viability at 2 days, 100 µM",in vitro,7.1%
same,LC50,[1]; [4],55.2 µM
same,viability at 1 µM,[1],100%
same,viability at 2 µM,[1],96%
same,viability at 3.9 µM,[1],96.4%
same,viability at 15.6 µM,[1],94.7%
same,viability at 31.3 µM,[1],88%
same,viability at 62.5 µM,[1],39.9%
same,viability at 125 µM,[1],3.8%
same,viability at 250 µM,[1],3.3%
same,viability at 500 µM,[1],2.9%
same,viability at 1000 µM,[1],1.8%
same,LC50,[1]; [5],55.2 µM
same,IC50,[2],5.7 µM
same,activity at 0.0001 µM,[2],89.8%
same,activity at 0.0005 µM,[2],91.3%
same,activity at 0.001 µM,[2],88.8%
same,activity at 0.0025 µM,[2],86.3%
same,activity at 0.005 µM,[2],84.5%
same,activity at 0.013 µM,[2],89.2%
same,activity at 0.025 µM,[2],82.7%
same,activity at 0.063 µM,[2],84.2%
same,activity at 0.125 µM,[2],82.8%
same,activity at 0.313 µM,[2],79.8%
same,activity at 0.625 µM,[2],84.6%
same,activity at 1.5 µM,[2],75.4%
same,activity at 3 µM,[2],61.1%
same,activity at 15 µM,[2],17.7%
same,activity at 37.5 µM,[2],2.74%
same,activity at 75 µM,[2],1.27%
same,Log IC50 B. taurus complex I,[2],0.76 µM
